# Source: patent US20230346931A1, “ALTERNATIVE SURFACTANTS AS STABILIZERS FOR THERAPEUTIC PROTEIN FORMULATIONS” (Hoffmann-La Roche Inc., priority 2020, published 2023)
# Assays:
# Format in all cases: physicochemical
# model mAb = experiment: Thermal conformational protein stability in presence of surfactants (nanoDSF); details: for effect on mAbs' conformational stability: elevated surfactant concentrations; for change of Tm1: surfactant 10 mg/mL; for change in thermal conformational stability properties: already at lower concentrations of 0.1 & mg/mL
# Source text: Conformational protein stability was investigated with the Prometheus NT.Plex (NanoTemper Technologies GmbH, München, Germany). The device allows the label-free fluorimetric analysis of the change in intrinsic protein fluorescence from aromatic tryptophan and tyrosine residues by using small quantities of solution. Thermal induced protein unfolding was monitored by detecting the emission shift at 330 nm and 350 nm at a laser power of 5%. The nanoDSF grade standard capillary chips (NanoTemper Technologies, München, Germany) were filled with 10 μL of freshly prepared (t0) formulation containing 25 mg/mL mAb compounded with either 0.01, 0.1, 1 or 10 mg/mL of the specific surfactant. Sodium dodecyl sulfate (SDS) was taken as positive control since the charge as been reported to lead to destabilization of proteins presumably by chare-charge interactions. Samples were heated from 25 to 95° C. with a constant heating ramp of 0.5° C. per minute. The PR.StabilityAnalysis software (NanoTemper Technologies, München, Germany) automatically calculated the onset (Ton) and first transition point (Tm1) temperature of the melting curve. Data reported are the mean value of three individual measurements.
# Stability indicating parameters being the onset temperature (Ton) of unfolding and the first melting transition (Tm1) were measured for the model mAb in presence of surfactants at concentrations ranging from 0.01 mg/mL to 10 mg/mL (see FIG. 4).
# mAb 1 [1] = experiment: Protein stability in presence of surfactants after mechanical stresses (shaking, freeze-thaw) and thermal stress, mAb 1; details: for particle formation upon shaking: 200 rpm, 7 days, 5° C. and 25° C.; for SVP ≥10 μm per container after shaking: criteria of maximum 6,000 particles≥10 μm per container
# Description: (§1) Surfactant performance screens were carried out with 0.1 and 1 mg/mL of the surfactant in the formulation of the model mAb described within the Materials section. After compounding the liquid samples were sterile filtered through 0.22 μm Millex Sterivex™ GV (Millipore, Bedford, USA) filter units, filled into 6 mL type 1 glass vials and closed with Ø 20 mm teflon® coated serum stoppers (DAIKYO Seiko Ltd., Tokyo, Japan). The stoppered vials were crimped using an aluminum cap (Infochroma AG, Goldau, Switzerland). The corresponding placebo formulations were equally prepared, formulated and used as respective controls.
# To evaluate the effects of the surfactants on the mAb's stability the formulations were exposed to various interfacial stress conditions like agitation and various freeze-thaw cycles. Shaking stress was carried by placing the vials horizontally for seven days at 5° C. and 25° C. protected from light within a shaker (HS 260 Control Model; IKA Werke GmbH & Co. KG; Staufen, Germany) at constant 200 rounds per minute (rpm). Freeze-thaw (F/T) stress was performed by exposing the vials to five consecutive cycles of freezing at −20° C. and thawing at 5° C.
# (§2) Thermal stability data was generated by storing the liquid protein formulations for up to 24 months (mo) at 5° C., for 6 months at 25° C./60% relative humidity (rH) and 12 weeks at 40° C./75% rH. Samples were analyzed at initial time point (t0) and after 1 mo, 3 mo, 6 mo, 12 mo, 18 mo and 24 months of storage using the subsequently described analytical methods
# Enhanced visual inspection was performed as previously described using a Seidenader V 90-T machine (Seidenader Maschinenbau GmbH, Markt Schwaben, Germany)[58]. The number of particles were categorized into four classes: class (I) is equivalent to 0 particles, class (II) is equivalent to 1-5 particles, class (III) is equivalent to 6-10 particles and class (IV) is equivalent to >10 particles.
# Turbidity was determined as previously described in literature and according to Ph. Eur. 2.2.1 using a 2100AN turbidimeter (Hach Lange GmbH, Dusseldorf, Germany) calibrated with a StablCal® calibration kit (Hach Lange GmbH). Results were given as Nephelometic Turbidity Units (NTU).
# The color of the solutions was assessed by means of a LICO 690 Colorimeter (Hach Lange GmbH). Classification was performed according to the color scale described in Ph. Eur. 2.2.2.. Data presented herein show the degree of color change according to color scale values of Ph.Eur. 2.2.2: class (I) is equivalent to color scale values of 9, 8, 7, or colorless; class (II) is equivalent to color scale values of 6 or 5; class (III) is equivalent to color scale values of 4 or 3; and class (IV) is equivalent to color scale values of 2 or 1.
# Sub-visible particle (SVP) count was measured by means of light obscuration using a HIAC 9703+ liquid particle counting system (Skan AG, Allschwil, Switzerland) and PharmSpec 3 (Hach Lange GmbH) software. The applied measurement technique was adapted from the method described in Ph.Eur. 2.9.19 [61] and USP <787>[62]. After rinsing the system with sample solution, four runs with a sample volume of 0.2 mL were performed. The final cumulative particle count was obtained by calculating the mean ±SD (standard deviation) from the last three measurements. SVP bigger than or equal to 2, 5, 10 and 25 μm were measured and presented as cumulative counts per mL of solution.
# Detection of soluble mAb aggregates, in the following referred to as high molecular weight species (HMWS), the monomer and the low molecular weight species (LMWs) were analyzed by SE-HPLC. The utilized system comprised an Alliance 2695 HPLC instrument equipped with a 2487 UV detector (both from Waters Corporation, Milford, MA). The autosampler temperature was set to 5° C. and the system was loaded with total 100 μg of the mAb. […]
# [2] = Surface tension measurement (dynamic surface tension, DST); details: mAb formulation at t0
# Description: Surface tension measurements were performed by means of liquid handling stations according to a method described by Amrhein et al.[63]. Briefly, the measurement depends on the correlation between drop mass and the surface tension of the sample. For this study a fully automated liquid handling station Freedom 384 EVO 200 (Tecan, Crailsheim, Germany) was equipped with an analytical balance (Mettler Toledo, Columbus, USA). The system contains stainless fixed tips which aspirate the sample with 100 μL·s^−1 from a sealed 1 mL round bottom LoBind® Deepwell Plate (Eppendorf, Hamburg, Germany). The sample was dispensed with 3 μL·s^−1 to a second round bottom Deepwell Plate 96/500 μL (Eppendorf, Hamburg, Germany) mounted on an analytical balance. The weight was recorded continuously using fully automated routines written in Matlab R2017b (MathWorks, Natick, MA, USA). The surface tension of water (72.6 mN/m) was used as a reference for calculations. The mean of three individual measurements of the samples (at t0) is reported as surface tension.
# mAb 1 [3] = experiment: Long-term protein stability (storage at 5° C. and 25° C.), mAb 1; details: higher concentrations
# Description: as §1
# as §2, with “methods […]” for “methods”
# Turbidity was determined as previously described in literature and according to Ph. […]
# The color of the solutions was assessed by means of a LICO 690 Colorimeter (Hach Lange GmbH). […]
# Sub-visible particle (SVP) count was measured by means of light obscuration using a HIAC 9703+ liquid particle counting system (Skan AG, Allschwil, Switzerland) and PharmSpec 3 (Hach Lange GmbH) software. […]
compound,measurement,setting,value
"CCCCCCCCCCCCOS(=O)(=O)[O-].[Na+] [SDS, Sodium dodecyl sulfate, reference compound]",effect on Ton and Tm1 compared to reference formulation without surfactant,model mAb; surfactant 0.01 to 10 mg/mL,concentration dependent destabilizing effect
Chobimalt,color after shaking stress,mAb 1 [1],strong change in color
same,stabilizing effect upon F/T studies,mAb 1 [1]; 5 freeze-thaw cycles,missing stabilizing effect at the interface
same,particle formation upon shaking,mAb 1 [1],strongest particle formation upon shaking
same,SVP ≥10 μm per container after shaking,mAb 1 [1],exceeded USP <787> criteria
same,dynamic surface tension,[2],around 73 mN/m
same,effect on mAbs' conformational stability,model mAb,no impact
same,change of Ton,model mAb; surfactant 1 mg/mL or higher,slight increase of Ton
"C[C@H](CCC(=O)N(CCCNC(=O)[C@H](O)[C@@H](O)[C@H](O)[C@H](O)CO)CCCNC(=O)[C@H](O)[C@@H](O)[C@H](O)[C@H](O)CO)[C@H]1CC[C@H]2[C@@H]3CC[C@@H]4C[C@H](O)CC[C@]4(C)[C@H]3C[C@H](O)[C@]12C [DBC, Deoxy-BigCHAP]",visible particles initially,mAb 1 [1]; 1 mg/mL surfactant,many particles initially
same,particle formation upon shaking,mAb 1 [1],particle formation particularly after agitation
same,SVP ≥10 μm per container after shaking,mAb 1 [1],exceeded USP <787> criteria
same,effect on mAbs' conformational stability,model mAb,destabilizing effect
same,change of Tm1,model mAb,slight decrease
same,change of Ton,model mAb; surfactant 1 and 10 mg/mL,slight decrease in Ton
same,solubility in formulation,mAb 1 [3],solubility issues
"CCCCCCCCCC(=O)N(CCO)C[C@H](O)[C@@H](O)[C@H](O)[C@H](O)CO [HEGA-10, decanoyl-N-hydroxyethylglucamide]",effect on mAbs' conformational stability,model mAb,destabilizing effect
same,change of Tm1,model mAb,comparable destabilizing effect
same,change of Ton,model mAb; surfactant 1 and 10 mg/mL,comparable destabilizing effect
sodium deoxy cholate [NaDC],change in thermal conformational stability properties,model mAb,strong decrease in thermal conformational stability properties
"CCCCCCCCC(=O)N(C)C[C@H](O)[C@@H](O)[C@H](O)[C@H](O)CO [MEGA-9, nonanoyl-N-methylglucamide]",effect on mAbs' conformational stability,model mAb,destabilizing effect
same,change of Tm1,model mAb,comparable destabilizing effect
same,change of Ton,model mAb; surfactant 1 and 10 mg/mL,comparable destabilizing effect
"C[C@H](CCC(=O)NCC(=O)[O-])[C@H]1CC[C@H]2[C@@H]3[C@H](O)C[C@@H]4C[C@H](O)CC[C@]4(C)[C@H]3C[C@H](O)[C@]12C.O.[Na+] [NaGC, sodium glycocholate hydrate]",change in thermal conformational stability properties,model mAb,strong decrease in thermal conformational stability properties
